Test results from US10413545B2, “Imidazolin-5-one derivative useful as FASN inhibitors for the treatment of cancer” (Janssen Pharmaceutica NV, priority 2013, dated 2019).
Read-outs that look alike come from different tables or passages of the source.

Assays:
[1] = target: FASN Keto-reductase Domain (hFASN enzyme, full length) (Homo sapiens (Human), UniProt P49327); test: Fatty Acid Synthase Keto-Reductase Domain (FASN KR) Inhibition; type: biochemical; details: NADPH oxidation at 340 nm, ethyl acetoacetate substrate, mean if tested more than once; for IC50: read-out: FASN Keto-reductase Domain pIC50 (converted)
FASN Keto-reductase Domain (hFASN enzyme, full length), sequence (P49327 whole entry, the tested form may be a part): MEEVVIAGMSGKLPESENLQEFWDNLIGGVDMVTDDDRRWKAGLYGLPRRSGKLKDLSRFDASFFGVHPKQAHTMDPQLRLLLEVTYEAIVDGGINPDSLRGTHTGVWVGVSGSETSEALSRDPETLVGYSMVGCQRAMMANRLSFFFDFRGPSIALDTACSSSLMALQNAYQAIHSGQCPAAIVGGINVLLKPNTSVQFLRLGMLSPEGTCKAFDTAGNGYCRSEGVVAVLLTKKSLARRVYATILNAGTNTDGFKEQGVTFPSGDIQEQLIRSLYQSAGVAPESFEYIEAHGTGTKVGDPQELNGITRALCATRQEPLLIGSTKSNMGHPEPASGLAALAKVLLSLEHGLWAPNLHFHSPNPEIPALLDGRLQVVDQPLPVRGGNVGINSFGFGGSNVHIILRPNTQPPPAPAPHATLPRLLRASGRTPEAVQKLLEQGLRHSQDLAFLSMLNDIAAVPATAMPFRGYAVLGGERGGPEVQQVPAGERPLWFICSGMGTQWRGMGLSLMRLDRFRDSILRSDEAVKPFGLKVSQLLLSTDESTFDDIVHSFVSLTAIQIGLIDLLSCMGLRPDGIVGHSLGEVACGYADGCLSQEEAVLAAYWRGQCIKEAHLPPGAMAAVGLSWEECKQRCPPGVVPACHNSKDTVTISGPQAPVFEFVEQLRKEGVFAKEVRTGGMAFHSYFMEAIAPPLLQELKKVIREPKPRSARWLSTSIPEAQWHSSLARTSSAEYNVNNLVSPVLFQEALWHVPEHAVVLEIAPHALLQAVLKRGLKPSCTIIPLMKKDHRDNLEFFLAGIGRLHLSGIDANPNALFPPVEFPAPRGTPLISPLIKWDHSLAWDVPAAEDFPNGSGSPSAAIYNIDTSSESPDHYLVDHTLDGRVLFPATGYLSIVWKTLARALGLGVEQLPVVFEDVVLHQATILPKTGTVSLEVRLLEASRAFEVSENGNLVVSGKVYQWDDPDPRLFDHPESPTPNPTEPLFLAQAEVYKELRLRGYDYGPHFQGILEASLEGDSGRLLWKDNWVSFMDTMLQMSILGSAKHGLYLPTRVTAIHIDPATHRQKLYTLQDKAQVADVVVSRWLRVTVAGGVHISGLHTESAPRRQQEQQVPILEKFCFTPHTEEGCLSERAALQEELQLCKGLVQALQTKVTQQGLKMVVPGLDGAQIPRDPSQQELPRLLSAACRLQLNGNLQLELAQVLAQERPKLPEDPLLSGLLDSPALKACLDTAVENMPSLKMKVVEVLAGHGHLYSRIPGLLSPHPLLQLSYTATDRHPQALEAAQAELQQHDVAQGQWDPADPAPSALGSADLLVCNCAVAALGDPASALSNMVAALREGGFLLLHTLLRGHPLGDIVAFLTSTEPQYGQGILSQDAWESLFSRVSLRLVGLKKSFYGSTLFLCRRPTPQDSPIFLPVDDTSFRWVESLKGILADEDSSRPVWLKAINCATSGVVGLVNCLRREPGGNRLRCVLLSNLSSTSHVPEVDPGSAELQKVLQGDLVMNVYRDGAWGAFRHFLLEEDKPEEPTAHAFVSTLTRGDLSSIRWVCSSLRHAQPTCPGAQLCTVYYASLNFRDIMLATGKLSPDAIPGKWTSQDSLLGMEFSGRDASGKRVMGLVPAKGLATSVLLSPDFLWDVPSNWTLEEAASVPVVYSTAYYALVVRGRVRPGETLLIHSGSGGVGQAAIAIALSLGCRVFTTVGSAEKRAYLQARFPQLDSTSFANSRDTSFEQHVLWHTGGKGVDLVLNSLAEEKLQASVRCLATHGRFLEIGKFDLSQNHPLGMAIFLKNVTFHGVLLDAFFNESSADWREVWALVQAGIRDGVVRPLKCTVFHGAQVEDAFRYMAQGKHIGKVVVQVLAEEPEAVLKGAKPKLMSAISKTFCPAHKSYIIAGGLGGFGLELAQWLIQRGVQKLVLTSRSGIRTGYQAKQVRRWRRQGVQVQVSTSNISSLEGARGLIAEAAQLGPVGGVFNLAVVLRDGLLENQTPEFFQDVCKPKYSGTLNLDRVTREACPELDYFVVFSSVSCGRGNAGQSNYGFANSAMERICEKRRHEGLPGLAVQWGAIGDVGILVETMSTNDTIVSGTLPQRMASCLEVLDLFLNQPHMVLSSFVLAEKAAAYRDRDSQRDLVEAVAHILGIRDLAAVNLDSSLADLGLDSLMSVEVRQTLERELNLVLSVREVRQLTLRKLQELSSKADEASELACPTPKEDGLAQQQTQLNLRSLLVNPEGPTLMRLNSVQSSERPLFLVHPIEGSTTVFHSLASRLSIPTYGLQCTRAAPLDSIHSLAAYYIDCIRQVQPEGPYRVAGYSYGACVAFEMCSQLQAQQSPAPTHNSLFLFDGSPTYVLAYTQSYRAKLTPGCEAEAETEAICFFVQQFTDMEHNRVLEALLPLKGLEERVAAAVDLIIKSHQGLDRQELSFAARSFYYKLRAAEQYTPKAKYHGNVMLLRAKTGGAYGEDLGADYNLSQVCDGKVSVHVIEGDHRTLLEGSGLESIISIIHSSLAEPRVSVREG
Description: After 20 minutes incubation at room temperature the plate was measured again (T2).
The decrease in absorbance was calculated as (Absorbance before incubation T1)−(Absorbance following incubation T2).
(§1) Raw data generated by the instrument were normalized to % Controlmin values, which were calculated as: % Controlmin=100*(x−mLC)/(mHC−mLC)
where mLC and mHC were the means of the low control wells and high control wells on the plate, after manual exclusion of outliers. A plot of Controlmin versus test compound concentration was fitted to a 4-parameter logistic curve using a non-linear least squares regression method.

[2] = target: Human FASN (hFASN enzyme, full length) (Homo sapiens (Human), UniProt P49327); test: Fatty Acid Synthase (FASN) Inhibition Scintillation Proximity Assay; type: biochemical; details: hFASN SPA, 3H-acetyl-CoA/malonyl-CoA; mean if tested more than once; ~ = standard error of pIC50 >0.5
Human FASN (hFASN enzyme, full length), sequence (P49327 whole entry, the tested form may be a part): as above
Description: In this assay, inhibition of FASN activity is measured using ^3H-acetyl-CoA and malonyl-CoA as substrates. ^3H-Acetyl CoA is converted to ^3H-palmitate through a series of reactions by the FASN protein, which contains 7 functional domains and carries out 7 enzymatic reactions to ultimately produce ^3H-palmitate. The assay principle is based upon the fact that ^3H-acetyl-CoA is hydrophilic and the end product, ^3H-palmitate is hydrophobic.
0.9 μL test compound (at concentrations of 30 μM, 10 μM, 3 μM, 1 μM, 0.30 μM, 0.10 μM, 0.03 μM and 0.01 μM)/DMSO and 10 μL hFASN enzyme (full length, 300 ng, purified in house) or 10 μL assay buffer was added to the wells. […] The reaction was stopped by adding 20 μL Streptavidin coupled imaging beads (25 mg/ml). After incubation for 30 minutes at room temperature in the dark, the 384 well plate was centrifuged at 1500 rpm for 3 minutes and was measured after at least 24 hrs by the LEADseeker™, measuring emission using a 610±20 nm pass filter.
as §1
where mLC and mHC were the means of the low control wells and high control wells on the plate, after manual exclusion of outliers. […]

[3] = system: PC-3M-Luc-C6 prostate cells; test: In Vitro PC-3M-Luc-C6 Prostate Cell Proliferation Assay in Lipid Reduced Medium; type: cell-based; details: 10% lipid reduced serum, 96 h, ATP-glow luminescence; for IC50: Prostate cell, read-out: pIC50 PC-3M-Luc-C6 prostate cell (converted)
[4] = system: LNCaP_Vancouver prostate cells; test: In Vitro LNCaP Vancouver Prostate Cell Proliferation Assay in Lipid Reduced Medium; type: cell-based; details: 10% lipid reduced serum, 96 h, ATP-glow luminescence; for IC50: Prostate cell, read-out: pIC50 LNCaP_Vancouver prostate cell (converted)
[5] = system: A2780 ovarian cells; test: A2780 Ovarian Cell Proliferation Assay in Lipid Reduced Medium, with and without Palmitate (MTT); type: cell-based; details: 10% lipid-reduced serum, 96 h; for IC50: Homo sapiens
[6] = no palmitate, read-out: pIC50 Without Palmitate (converted)
[7] = 25 μM palmitate added (control), read-out: pIC50 With Palmitate (converted)

Row | IC50 [1] | IC50 [3] | IC50 [4] | IC50 [5, 6] | IC50 [5, 7] | Compound | further results
1 |  |  |  |  |  | 1-((1-(cyclopropanecarbonyl)azetidin-3-yl)methyl)-2-(2-fluoro-4-(1-methyl-1H-indazol-5-yl)phenyl)-4,4-dimethyl-1H-1-imidazol-5(4H)-one [Compound 69] | FASN Keto-reductase Domain pIC50 [1]: 6.67; Human FASN pIC50 [2]: 6.96; pIC50 PC-3M-Luc-C6 prostate cell [3]: 7.04; pIC50 LNCaP_Vancouver prostate cell [4]: 6.87; pIC50 With Palmitate ([5]; 25 μM palmitate added (control)): <5; pIC50 Without Palmitate ([5]; no palmitate): 7.19
2 | 2750 nM | 646 nM | 1780 nM |  |  | CC1(C)N=C(c2ccc(-c3n[nH]c4ccccc34)cc2F)N(C[C@@H]2CCN(C(=O)C3CC3)C2)C1=O [Compound 57, (R)-1-((1-(cyclopropanecarbonyl)pyrrolidin-3-yl)methyl)-2-(2-fluoro-4-(1H-indazol-3-yl)phenyl)-4,4-dimethyl-1H-imidazol-5(4H)-one] | 
3 | 186 nM |  | 525 nM |  |  | CC1(C)N=C(c2ccc(-c3c[nH]c4ccccc34)cc2F)N(C[C@@H]2CCN(C(=O)C3CC3)C2)C1=O [Compound 63, (R)-1-((1-(cyclopropanecarbonyl)pyrrolidin-3-yl)methyl)-2-(2-fluoro-4-(1H-indol-3-yl)phenyl)-4,4-dimethyl-1H-imidazol-5(4H)-one] | 
4 | 52.5 nM | 589 nM | 692 nM | ~427 nM |  | CC1(C)N=C(c2ccc(-c3ccc4cc(F)ccc4c3)cc2F)N(C[C@@H]2CCN(C(=O)C3CC3)C2)C1=O [Compound 66] | 
5 | 47.9 nM |  | 204 nM | 17.4 nM |  | CC1(C)N=C(c2ccc(-c3ccc4cnccc4c3)cc2F)N(C[C@@H]2CCN(C(=O)C3CC3)C2)C1=O [Compound 68, (R)-1-((1-(cyclopropanecarbonyl)pyrrolidin-3-yl)methyl)-2-(2-fluoro-4-(isoquinolin-6-yl)phenyl)-4,4-dimethyl-1H-imidazol-5(4H)-one] | 
6 |  |  |  | ~9330 nM | > 10000 nM | CC1(C)N=C(c2ccc(-c3nc4ccccc4[nH]3)cc2)N(C[C@@H]2CCN(C(=O)C3CC3)C2)C1=O [Compound 71, (R)-2-(4-(1H-benzo[d]imidazol-2-yl)phenyl)-1-((1-(cyclopropanecarbonyl)pyrrolidin-3-yl)methyl)-4,4-dimethyl-1H-imidazol-5(4H)-one] | Human FASN pIC50 [2]: 5.23
7 |  | ~8.32 nM | 11.5 nM | 3.89 nM | > 10000 nM | Cn1cc(-c2ccc(-c3ccc(C4=NC(C)(C)C(=O)N4C[C@@H]4CCN(C(=O)C5(C)CC5)C4)c(F)c3)cc2)cn1 [Compound 74, (R)-2-(3-fluoro-4′-(1-methyl-1H-pyrazol-4-yl)-[1,1′-biphenyl]-4-yl)-4,4-dimethyl-1-((1-(1-methylcyclopropanecarbonyl)pyrrolidin-3-yl)methyl)-1H-imidazol-5(4H)-one] | 
8 |  | 112 nM | 1170 nM | 316 nM | > 10000 nM | Cc1cc(-c2ccc3c(cnn3C)c2)ccc1C1=NC(C)(C)C(=O)N1CC1CN(C(=O)C2(C)CC2)C1 [Compound 77, 4,4-dimethyl-2-(2-methyl-4-(1-methyl-1H-1-indazol-5-yl)phenyl)-1-((1-(1-methylcyclopropanecarbonyl)azetidin-3-yl)methyl)-1H-imidazol-5(4H)-one] | 
9 |  | 447 nM | 3090 nM | 537 nM | > 10000 nM | Cn1ncc2cc(-c3ccc(C4=NC(C)(C)C(=O)N4CC4CN(C(=O)C5(O)CC5)C4)c(F)c3)ccc21 [Compound 78, 2-(2-fluoro-4-(1-methyl-1H-indazol-5-yl)phenyl)-1-((1-(1-hydroxycyclopropanecarbonyl)azetidin-3-yl)methyl)-4,4-dimethyl-1H-imidazol-5(4H)-one] | 
10 |  | ~70.8 nM | 178 nM | 11.7 nM | ~10000 nM | Cc1cc(-c2ccc(-c3cnn(C)c3)cc2)ccc1C1=NC(C)(C)C(=O)N1CC1CN(C(=O)C2(C)CC2)C1 [Compound 87, 4,4-dimethyl-2-(3-methyl-4′-(1-methyl-1H-pyrazol-4-yl)-[1,1′-biphenyl]-4-yl)-1-((1-(1-methylcyclopropanecarbonyl)azetidin-3-yl)methyl)-1H-imidazol-5(4H)-one] | 
